# Data reported in patent publication US8575142B2, “Agent for improving insulin resistance” (Morinaga Milk Industry Co., Ltd., priority 2005, dated 2013).
# Several values for one entry are separate records, joined by “and”; a condition that tells them apart may be missing. Identical values can stand only once.
# Key:
# Format in all cases: in vivo
# [1] = system: AKR mice to which insulin resistance was induced by feeding with a high-fat diet; experiment: Level of free fatty acid in serum of AKR mice with high-fat-diet-induced insulin resistance; settings: 60th day of oral administration; for Free fatty acid: mouse serum, under fasting, 25 μg/kg of body weight once a day; for Test sample/negative sample (free fatty acid level in serum): relative to negative sample group, 25 μg/kg once a day
# Description: Compound 3 (4-methylcholest-7-en-3-ol), Compound 4 (4-methylergost-7-en-3-ol), and Compound 5 (4-methylstigmast-7-en-3-ol) which were produced in Preparation Example 1 were each dissolved in DMSO and adjusted with distilled water to each have a concentration of 1 μg/ml, to thereby prepare Test Samples 1, 2, and 3. In this case, DMSO was adjusted to have a final concentration of 0.2%.
# After that, the mice were divided into groups of 8 mice each. Each of the groups of mice were orally administered with 1 ml per 40 g of body weight (25 μg/kg of body weight) of a test sample or the negative sample once a day using a sonde.
# TNF-α = TNF-α production by epididymal fat tissues collected from treated insulin-resistant AKR mice (ELISA); settings: for TNF-α: culture supernatant of epididymal fat tissue after 1 hour culture, 60th day of oral administration, 25 μg/kg once a day; for Effect on production of TNF-α as compared with negative sample group: fat tissues, 60th day, 25 μg/kg oral once a day, Tukey-Kramer's test
# Description: (§1) The present example was performed by using AKR mice to which insulin resistance was induced by feeding with a high-fat diet, to evaluate the effects of the agent for amelioration insulin resistance of the present invention on production of TNF-α and MCP-1 from respective cells of fat tissues.
# (§2) In Example 2, the same test samples and negative sample as those prepared in Example 1 were used.
# (§3) After that, the mice were divided into groups of 8 mice each. Each of the groups of mice was orally administered with 1 ml per 40 g of body weight (25 μg/kg of body weight) of a test sample or the negative sample once a day using a sonde. […] After 1 hour of the culture, culture supernatants were collected, and concentrations of TNF-α and MCP-1 in the culture supernatants were measured by ELISA (Biosource).
# MCP-1 = MCP-1 production by epididymal fat tissues collected from treated insulin-resistant AKR mice (ELISA); settings: for MCP-1: culture supernatant of epididymal fat tissue after 1 hour culture, 60th day of oral administration, 25 μg/kg once a day; for Effect on production of MCP-1 as compared with negative sample group: fat tissues, 60th day, 25 μg/kg oral once a day, Tukey-Kramer's test
# Description: as §1, §2, §3
# [2] = system: AKR mice to which insulin resistance was induced by feeding with a high-fat diet; experiment: Insulin tolerance test in AKR mice with high-fat-diet-induced insulin resistance; settings: 45th day of oral administration, 25 μg/kg once a day; 4 hours fasted; 0.75 U/kg human insulin intraperitoneally; up to 60 minutes; compared with negative sample
# Description: The present example was performed by using AKR mice to which insulin resistance was induced by feeding with a high-fat diet, to confirm an enhancing effect of the agent for improving insulin resistance of the present invention on insulin sensitivity by performing an insulin tolerance test.
# In Example 3, the same test samples and negative sample as those prepared in Examples 1 and 2 were used.
# After that, the mice were divided into groups of 8 mice each. Each of the groups of mice was orally administered with 1 ml per 40 g of body weight (25 μg/kg of body weight) of a test sample or the negative sample once a day using a sonde. […] The insulin tolerance test in the present example was performed in such a manner that: the mice were fasted for 4 hours, and were then intraperitoneally administered with 0.75 U/kg of body weight of a human insulin (Eli Lily and Company); and changes with time in blood glucose level were measured from the initiation of the administration of insulin to after 60 minutes later.
Compound,Free fatty acid [1] [mEp/l],Test sample/negative sample (free fatty acid level in serum) [1],TNF-α (TNF-α) [pg/mL],Effect on production of TNF-α as compared with negative sample group (TNF-α),MCP-1 (MCP-1) [pg/mL],Effect on production of MCP-1 as compared with negative sample group (MCP-1),Change in blood glucose level after administration of insulin (FIG. 1) [2]
"CC(C)CCCC(C)C1CCC2C3=CCC4C(C)C(O)CCC4(C)C3CCC21C (stereo not drawn) [Test Sample 1, 4-methylcholest-7-en-3-ol]",1.35 ± 0.23,86.4% and 84.5%,33.73 ± 1.68,significant inhibitory effects,100.86 ± 8.31,significant inhibitory effects,rapid reduction in blood glucose levels
"CC(C)C(C)CCC(C)C1CCC2C3=CCC4C(C)C(O)CCC4(C)C3CCC21C (stereo not drawn) [Test Sample 2, 4-methylergost-7-en-3-ol]",1.21 ± 0.22,81.6%,32.71 ± 1.70,significant inhibitory effects,95.56 ± 10.56,significant inhibitory effects,rapid reduction in blood glucose levels
"CCC(CCC(C)C1CCC2C3=CCC4C(C)C(O)CCC4(C)C3CCC21C)C(C)C (stereo not drawn) [Test Sample 3, 4-methylstigmast-7-en-3-ol]",0.90 ± 0.15,60.8%,29.80 ± 3.82,significant inhibitory effects,87.80 ± 9.24,significant inhibitory effects,rapid reduction in blood glucose levels
